For one data set, the system named is Human iPS (IMR90-4). Nature of the data set: Number of beating colonies of cardiac muscle cells. It is filed as cell-based. The following applies: N11474 10 μM during day 4 to 14. The protocol: (§1) The effect of promoting differentiation of each of the ES/iPS cells into cardiac muscle cells were confirmed for N11474 and KY02111 with the GFP expression level and number of beating colonies used as the indicators. Human ES cell line (Kh-1 line) (Suemori, H., et al., Efficient establishment of human embryonic stem cell lines and long-term maintenance with stable karyotype by enzymatic bulk passage. Biochem Biophys Res Commun. 345(3), 926-32 (2006)) (incorporated herein by reference) was seeded in a 6-well plate (Asahi Glass/5816-006: Ezview culture plate) in 1.2×10^6 cells/well and cultured for 22 days, with BMP4 (10 ng/ml) added during day 0 to 4 of culture and N11474 (10 μM) or KY02111 (5 μM) added during day 4 to 14 of culture. Human iPS cell lines (253G1, IMR90-1, IMR90-4 and RCHIPC0003) (Takahashi, K., et al., Induction of pluripotent stem cells from adult human fibroblasts by defined factors. Cell. 131(5), 861-72 (2007); Yu, J., et al., Induced pluripotent stem cell lines derived from human somatic cells. Science. 318(5858), 1917-20 (2007)) (these references are herein incorporated by reference) were cultured for the cardiac muscle cell differentiation in the same manner as for the human ES cells. The cardiac muscle cells from mouse ES cells (R1) were differentiated in accordance with the method described in the reference (Transient inhibition of BMP signaling by Noggin induces cardiomyocyte differentiation of mouse embryonic stem cells. Yuasa S, et al. Nat. Biotechnol. 2005 May; 23(5): 607-11; incorporated herein by reference). KY02111 (5 μM) was added for 3 days during day 6 to 9 of cardiac muscle cell differentiation culture and the beating colonies of cardiac muscle cells were analyzed at day 9. Monkey ES cells (CMK6.4) were cultured for cardiac muscle cell differentiation in the same manner as in the above (2).

For data set [1], the system named is Human ES cell line (Kh-1 line). Nature of the data set: Cardiac muscle cell differentiation (GFP expression level, number of beating colonies). The following applies: N11474 10 μM during day 4 to 14. It is filed as cell-based. The protocol:
as §1, with “The cardiac muscle cells from mouse ES cells (R1) were differentiated in accordance with the method described in the reference (Transient inhibition of BMP signaling by Noggin induces cardiomyocyte differentiation of mouse embryonic stem cells. Yuasa S, et al. Nat. Biotechnol. 2005 May; 23(5): 607-11; incorporated herein by reference).” left out, “Monkey ES cells (CMK6.4) were cultured for cardiac muscle cell differentiation in the same manner as in the above (2).” left out

The test system of another data set is Monkey ES cells. Nature of the data set: Cardiac muscle cell differentiation of monkey ES cells, 6-well plate, GFP expression observed at day 14. The following applies: 10 μM during day 4 to 10; GFP at day 14. It is filed as cell-based. The source says:
In the same manner as Example 2, the effects of promoting cardiac muscle cell differentiation were compared among KY02111 and N11474, known Wnt signaling inhibitors (IWP2, XAV939 and IWR1), proteins known to be effective in promoting cardiac muscle cell differentiation (G-CSF, IGFBP4, Dkk1 and cytokines (a mixture of bFGF, BMP4, VEGF, DKK1 and Activin A)).
The effect of BIO, a Wnt signaling activator, on the effect of promoting cardiac muscle cell differentiation of KY02111, XAV939 and IWP2 was analyzed. […]

In data set [2] the test system is monkey ES cell line (CMK 6.4 cynomolgus monkey ES cells). Nature of the data set: Screening of library compounds: GFP expression under alpha-MHC promoter, 96-well plates. To be noted: about 1 to 5 μM compound/well during day 6 to 14; HCS system. It is filed as cell-based. The protocol:
A vector expressing green fluorescent protein (GFP) under control of promoter of α-MHC gene, a marker of cardiac muscle cell differentiation, was introduced into monkey ES cell line (CMK 6.4 cynomolgus monkey ES cells) and the cells were seeded on 96-well culture plates (Greiner/655090: 96 well FIA black plate) in 5.0×10^3 cells/well, and cultured for 14 days in an IMDM-based differentiation medium for cardiac muscle cells (200 ml. IMDM (Sigma 13390) containing 50 ml bovine fetal serum (GIBCO 10099-141), 2.5 ml MEM non-essential amino acid solution (Sigma M7145), 2.5 ml penicillin-streptomycin (GIBCO 15140), 2.5 ml 200 mM L-glutamine, 2 μl 2-mercaptoethanol (Sigma M7522), 255 μl 5N NaOH). During day 6 to 14 of culture, 9,600 library compounds were added into separate wells (about 1 to 5 μM compound/well). Then, at […] of culture, GFP expression level was determined by using HCS (high contents screening) system (Molecular device/MetaMorph imaging system).

The subject of data set [3] is human iPS cells (IMR90-1). Nature of the data set: Percentage of cardiac muscle cells by flow cytometry with cardiac troponin T (cTnT) antibody. It is filed as cell-based. To be noted: 2 μM during days 3-8; 3 μM CHIR99021 first two days; without compound 3.7%. The protocol: (§2) The effect of promoting cardiac muscle cell differentiation of SO2031 (KY02-I) was confirmed using human ES cells (KhES-3) and iPS cells (IMR90-1) (FIG. 19). Induction of cardiac muscle cell differentiation was performed as described previously (Cell Reports, Volume 2, Issue 5, 1448-1460, 25 Oct. 2012). Specifically, IMDM (Sigma) containing 1% MEM non-essential amino acid solution (Sigma), 1% penicillin-streptomycin (Gibco), 2 mM L-glutamine (Sigma), 0.5 mM L-carnitine (Sigma), 0.001% 2-mercaptoethanol (Gibco), and 0.4% human serum albumin (Sigma) was used for culture. Cardiac muscle cell differentiation was induced in Ultra-low attachment culture dish (Corning) by floating culture. During the first two days, 3 μM CHIR99021, a WNT activator, was added, and during days 3-8 of culture, 2 μM SO2031 (KY02-I) was added. Efficiency of cardiac muscle cell differentiation was determined by calculating the percentage of cardiac muscle cells by flow cytometry using an antibody for cardiac troponin T (cTnT), a cardiac-specific marker molecule.

Another data set concerns human ES cells (KhES-3). Described as above. It is filed as cell-based. To be noted: 2 μM during days 3-8; 3 μM CHIR99021 first two days; without compound 17.9%. The protocol: as §2
The nature of data set [4]: Solubility in medium (observation of crystals). The following applies: after 24 hours. It is filed as physicochemical. The protocol:
SO2031 (KY02-I) was dissolved in 20% serum-containing medium (200 ml IMDM (Sigma) containing 50 ml bovine fetal serum (GIBCO), 2.5 ml MEM non-essential amino acid solution (Sigma), 2.5 ml penicillin-streptomycin (GIBCO), 2.5 ml 200 mM L-glutamine, 2 μl 2-mercaptoethanol) at 20 μM, and in serum-free medium (200 ml IMDM (Sigma) containing 2.5 ml MEM non-essential amino acid solution (Sigma), 2.5 ml penicillin-streptomycin (GIBCO), 2.5 ml 200 mM L-glutamine, 2 μl 2-mercaptoethanol) at 3 or 20 μM and observed after 24 hours (FIG. 20). […] As the compound is not crystallized, the concentration of the compound in the medium is stably maintained. Also, there is no possibility that the crystals affect the cells, and there is no risk that the crystals remained in the cells are transferred to and affect the host at transplantation.

Data set [5] concerns monkey ES cells (CMK 6.4 cynomolgus monkey ES cell line). Nature of the data set: Cardiac muscle cell differentiation of monkey ES cells, compound day 4 to 8, GFP fluorescence at day 10 (MetaMorph). It is filed as cell-based. The source says:
Compounds substituted at the position R7 of Formula 1, which corresponds to Cl of KY02111, were synthesized and examined for the effect of promoting cardiac muscle cell differentiation in a dose-dependent manner in monkey ES cells as described in Example 2. Specifically, a vector expressing green fluorescent protein (GFP) under control of promoter of α-MHC gene, a marker of cardiac muscle cell differentiation, was introduced into monkey ES cells (CMK 6.4 cynomolgus monkey ES cell line) and the cells were seeded on 6-well culture plates (Asahi Glass/5816-006: Ezview culture plate) in 4.0×10^5 cells/well, and cultured in an IMDM-based differentiation medium for cardiac muscle cells (200 ml IMDM (Sigma) containing 50 ml bovine fetal serum (GIBCO), 2.5 ml MEM non-essential amino acid solution (Sigma), 2.5 ml penicillin-streptomycin (GIBCO), 2.5 ml 200 mM L-glutamine, 2 μl 2-mercaptoethanol). Each compound was added to the cells during day 4 to day 8 of the cardiac muscle cell differentiation culture, and the GFP fluorescence was analyzed at day 10 by using MetaMorph imaging system.

Turning to `COc1ccc2nc(NC(=O)Cc3ccc(OC)c(OC)c3)sc2c1` [N11474], the “Beating cardiac muscle cell differentiation efficiency (Control (DMSO) = 100%)” value with Human iPS (IMR90-4) is listed as 4000% (N11474); in data set [1] (Human ES (Kh-1)), 1100% (N11474). In addition, the GFP expression level entry is “significant increase” in data set [1] (at day 14 and after of culture, FIG. 6); “high GFP expression levels” in data set [2]. The “increase in the GFP expression level” value with Monkey ES cells was 1000%.
As for `COc1ccc(CCC(=O)Nc2nc3ccc(I)cc3s2)cc1OC` [SO2031, 2-(3-(3,4-dimethoxyphenyl)propanamid)-6-iodobenzothiazole], the figures for the “ratio of cardiac muscle cells (cTnT)” value (in data set [3]; with human ES cells (KhES-3)) were 56.8% and 77.9%, respectively. Further, the crystals in medium entry in data set [4] (20% serum-containing medium at 20 μM, serum-free medium at 3 or 20 μM) was “Large crystals were not observed”; in data set [4] (serum-free medium, 3 μM), “almost no crystal was observed”. Further, the “effect of promoting cardiac muscle cell differentiation, times higher than that of KY02111” value in data set [5] (0.1 μM) is “about 16 times”; in data set [5] (1 μM), around 6.3 times; in data set [5] (10 μM), around 2.1 times; in data set [5] (30 μM), around 1.5 times. Also, the “effect of promoting cardiac muscle cell differentiation, times higher than that of SO087” value in data set [5] (0.1 μM) is reported as “about 5.2 times”; in data set [5] (1 μM), around 2 times; in data set [5] (10 μM), around 1.6 times; in data set [5] (30 μM), around 1.1 times. The “effect of promoting cardiac muscle cell differentiation, SO2031 versus SO3042” value in data set [5] (0.1 μM, 0.4 μM and 2 μM, separate experiment, FIG. 17) was “comparable effect”. The “effect of promoting cardiac muscle cell differentiation, carbon chain length (n) series” value in data set [5] (FIG. 16) was “higher effect compared to KY02111”. Moreover, the “effect compared to SO3031 (KY01-I)” value in data set [5] (low dose (0.1 μM)) was found to be 2.7 times.
